This is an account of results in paper PMC12174897, “Hitting Two Birds With One Stone: Dual Modulation of Brain Carbonic Anhydrases and Histone Deacetylases Boosts Memory Consolidation” (Archiv Der Pharmazie, 2025).

For orientation: EC50 means the concentration that produces a half-maximal response.

Some results are limits rather than exact numbers.

The subject of experiment [1] is CA activity in cortical and hippocampal brain homogenates. As to the kind of experiment: Ex vivo CA activity in brain homogenates after i.c.v. infusion (stopped-flow). To be noted: 50 nmol/µL, 5 µL i.c.v., 30 min after infusion; vehicle = 100%.
Method: (§3) Specifically, mice were euthanized 30 min after the i.c.v. infusion, their brains were collected, and hippocampi and frontal cortices were immediately dissected on ice and then individually homogenized in 1 mL of ice‐cold 20 mM Hepes buffer (pH 7.5).
The overall catalytic activity of CAs (K cat) of each individual preparation was measured with a stopped flow spectrophotometric method monitoring the physiological CO2 hydration reaction catalyzed by these enzymes [30]
Animals were killed 30 min after drug infusion, and the brain structures were immediately dissected on ice and homogenized. CA activity was measured with a stopped‐flow method. The mean CA activity measured in the group of control mice treated with vehicle was taken as 100%, the activities measured for animals treated with compounds were normalized to this value. Data are expressed as means ± S.E.M. of six–nine mice per experimental group. One‐way ANOVA and Bonferroni MCT, **p < 0.01 versus vehicle.
In the infusion days, a stainless‐steel injection micro‐needle (outer diameter 0.25 mm) connected through a polyethylene catheter to a 1000 µL Hamilton precision syringe was inserted into the cannulae previously implanted and lowered into the lateral cerebral ventricle (DV 2.4 mm). Then, 5 µL of a solution containing the testing compounds or vehicle were delivered using an infusion pump at 1 µL/min flow. The needle was left in place for one additional minute after each infusion to avoid efflux. Thirty minutes after drug injections, the animals were euthanized, their brain immediately removed, the cortices and hippocampi were rapidly dissected on ice, weighted, and stored at –80°C until use.
Animals pertaining to the control group received infusions of vehicle (physiological saline containing 1% DMSO (v/v)).
Brain tissues were homogenized in 1.0 mL of ice‐cold 20 mM Hepes buffer (pH 7.5). After centrifugation at 20,000g for 30 min, an Applied Photophysics stopped‐flow instrument was used for assaying the CA‐catalyzed CO2 hydration activity from the samples as previously described [23, 34]. […] The mean CA activity determined in the brain samples from the control group of mice treated with vehicle was set as 100% and all the individual calculated values were then expressed as a percentage of controls.
A further experiment concerns the target T1, hCA II (Homo sapiens, UniProt P00918).
T1 construct: purchased
As to the kind of experiment: stopped-flow CO2 hydrase assay, CA activation. Type of experiment: biochemical. To be noted: for K A hCA II: activation constant, mean from three assays, errors ±5%–10%.

Another experiment concerns the target T2, hCA IX (Homo sapiens, UniProt Q16790).
T2 construct: made in house
In words: stopped-flow CO2 hydrase assay, CA activation. The format is biochemical. To be noted: activation constant; mean from three assays, errors ±5%–10%.

The next experiment deals with Male C57Bl6 mice. As to the kind of experiment: Novel object recognition (NOR) paradigm, memory consolidation. The format is in vivo. To be noted: for Discrimination index (DI): 5 µL i.c.v., retention test 24 h, vehicle −0.057 ± 0.069; for percentage of time spent exploring familiar vs novel object, retention test: 5 µL i.c.v. immediately after acquisition, retention test 24 h later. The arrangement: key to Discrimination index (DI): DI = (tN − tF)/(tN + tF); novel vs familiar exploration time. How it is done:
This set of experiments was designed to evaluate the impact of single reference compounds (D‐Phe and 19) as well as the dual acting (12 and 14) on recognition memory. These compounds were administered directly into the brain lateral ventricles immediately after the acquisition session to investigate their impact specifically on memory consolidation. […] Such a design avoids the use of amnestic drugs that could interfere with data interpretation and represents an advantage when studying the procognitive potential of novel compounds. The dose range and administration route were also chosen based on previous reports showing that the procognitive effects of CA and HDAC modulators rely on their action on centrally and not peripherally expressed enzymes. Moreover, the injection of the tested compounds directly into the lateral ventricles (i.c.v.) consents widespread drug distribution in the brain and at the same time minimizes potential interference of peripheral phenomena such as barriers crossing, protein binding, drug metabolism, that are highly influenced by specific drug characteristics such as size, solubility, charge. Therefore, the i.c.v. route represents an advantage in studies comparing the potency of compounds by ensuring precise control of drug concentrations in the target organ and excluding confounding factors related to peripheral pharmacokinetic mechanisms.
Figure 5 Dual modulation of CAs and HDACs potently boost recognition memory in mice. (A) Schematic drawing showing the sequence of the behavioral procedures: immediately after the acquisition phase mice received infusions (5 µL) of solutions containing either vehicle, the CA activator D‐Phe, the HDAC inhibitor 19 dual acting compounds 12 and 14 at 0.5, 5, or 50 nmol/µL concentrations. The retention test was performed 24 h later. (B) Percentages of time spent exploring the familiar (F) or novel (N) objects during the retention test. The dashed line indicates a theoretical means of 50%. Statistically significant differences determined by two‐way ANOVA and Bonferroni's MCT: ****p < 0.0001 F versus N. (C) Discrimination indexes calculated with the formula DI = (tN tF)/(tN + tF). Statistically significant differences determined by one‐way ANOVA and Bonferroni's MCT: *p < 0.05; **p < 0.01 versus vehicle‐treated group. In both graphics, data are expressed either as individual data points for each animal (scattered plot) znc means ± SEM represented by bar graphs. N = 6–9 animals by experimental group.
Male C57Bl6 mice were submitted to the stereotaxic surgery to implant a guide cannula into the brain lateral ventricles as described above. One week after the surgery, their behavior was assessed in an open‐field arena (60 × 70 cm and 30 cm high) constructed in white acrylic Plexiglass and placed in a sound‐attenuated room. The detailed experimental procedure is already published. The NOR protocol consists of three sessions: habituation, acquisition, and retention test separated by 24 h intertrial intervals. During habituation, the animals freely explored the empty arena for 10 min. Twenty‐four hours later, each animal was placed in the same position and facing the same direction into the test arena in the presence of two identical objects (gray plastic shapes such as cubes, cylinders, or pyramids 8 cm high) and left free to explore it for 5 min. […] The retention test session was performed 24 h after acquisition, during which, each mouse was again placed in the test arena for 5 min in the presence of one of the familiar object and a novel object. The position of the new objects (left/right) was randomized to prevent bias from order or place preference.

Another experiment deals with T3, hCA I (Homo sapiens, UniProt P00915).
T3 construct: purchased
T3 sequence (P00915 whole entry): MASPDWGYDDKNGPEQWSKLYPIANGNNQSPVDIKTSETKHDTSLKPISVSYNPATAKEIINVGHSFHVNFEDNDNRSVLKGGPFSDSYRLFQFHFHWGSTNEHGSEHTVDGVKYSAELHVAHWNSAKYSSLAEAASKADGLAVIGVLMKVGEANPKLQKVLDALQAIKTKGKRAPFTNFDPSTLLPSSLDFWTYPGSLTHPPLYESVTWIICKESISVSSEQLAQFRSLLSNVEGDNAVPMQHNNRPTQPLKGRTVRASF
In words: stopped-flow CO2 hydrase assay, CA activation. The format is biochemical. To be noted: for K A hCA I: activation constant, mean from three assays, errors ±5%–10%.

In a further experiment the target is T4, hCA IV (Homo sapiens, UniProt P22748).
T4 construct: made in house
T4 sequence (P22748 19-312): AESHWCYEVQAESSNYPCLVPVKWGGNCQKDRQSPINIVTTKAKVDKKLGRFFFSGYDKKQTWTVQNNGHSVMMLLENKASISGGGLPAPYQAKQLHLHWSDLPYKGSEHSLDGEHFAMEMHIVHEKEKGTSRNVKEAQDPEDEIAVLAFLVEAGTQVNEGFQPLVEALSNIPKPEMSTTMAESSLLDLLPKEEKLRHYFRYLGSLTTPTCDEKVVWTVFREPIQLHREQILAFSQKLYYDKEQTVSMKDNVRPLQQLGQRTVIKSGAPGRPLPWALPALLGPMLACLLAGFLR
As to the kind of experiment: stopped-flow CO2 hydrase assay, CA activation. To be noted: for K A hCA IV: activation constant, mean from three assays, errors ±5%–10%. Type of experiment: biochemical. How it is done:
(§1) . The potencies were reported as K A values in Table 1 and compared with the reference compound D‐Phe. AC50 curves are reported in the Supporting Information.
(§2) . The uncatalyzed rates were determined in the same manner and subtracted from the total observed rates. Stock solutions of the inhibitor (0.1 mM) were prepared in distilled–deionized water and dilutions up to 0.01 nM were done thereafter with the assay buffer. Inhibitor and enzyme solutions were preincubated together for 15 min at r.t. before the assay, to allow for the formation of the E–I complex. The inhibition constants were obtained by nonlinear least‐squares methods using PRISM 3 and the Cheng‐Prusoff equation [41] and represent the mean from at least three different determinations. Apart from commercial hCAs I and II, all CA isoforms were recombinant proteins obtained in house, as reported earlier.
as §2, with “prior to” for “before”, “least-squares” for “least‐squares”, “Cheng-Prusoff” for “Cheng‐Prusoff”, “[2]” for “[41]”

The target in a further experiment is T5, hCA VA (Homo sapiens, UniProt P35218).
T5 construct: made in house
T5 sequence (P35218 39-305): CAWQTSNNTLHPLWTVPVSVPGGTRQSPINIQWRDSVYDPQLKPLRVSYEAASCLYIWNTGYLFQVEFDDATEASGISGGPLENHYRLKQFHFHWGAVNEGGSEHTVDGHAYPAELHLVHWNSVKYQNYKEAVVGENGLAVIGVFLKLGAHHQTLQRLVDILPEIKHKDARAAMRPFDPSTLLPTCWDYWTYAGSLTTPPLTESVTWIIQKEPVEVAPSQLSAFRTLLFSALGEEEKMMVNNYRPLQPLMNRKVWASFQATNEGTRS
In words: stopped-flow CO2 hydrase assay, CA activation. To be noted: for K A hCA VA: activation constant, mean from three assays, errors ±5%–10%. The format is biochemical. How it is done: as §1, §2
as §2, with “prior to” for “before”, “least-squares” for “least‐squares”, “Cheng-Prusoff” for “Cheng‐Prusoff”, “[2]” for “[41]”

The target in the next experiment is T6, hCA VII (Homo sapiens, UniProt P43166).
T6 construct: made in house
T6 sequence (P43166 whole entry): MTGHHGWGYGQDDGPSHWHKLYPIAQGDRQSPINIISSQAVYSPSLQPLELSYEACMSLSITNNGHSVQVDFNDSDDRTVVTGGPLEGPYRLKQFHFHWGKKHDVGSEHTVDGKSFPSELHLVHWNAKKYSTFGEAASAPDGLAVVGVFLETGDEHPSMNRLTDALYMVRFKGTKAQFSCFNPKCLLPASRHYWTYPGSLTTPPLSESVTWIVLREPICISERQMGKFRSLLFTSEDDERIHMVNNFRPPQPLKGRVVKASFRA
As to the kind of experiment: stopped-flow CO2 hydrase assay, CA activation. Type of experiment: biochemical. To be noted: for K A hCA VII: activation constant, mean from three assays, errors ±5%–10%. How it is done:
as §1, §2
as §2, with “prior to” for “before”, “least-squares” for “least‐squares”, “Cheng-Prusoff” for “Cheng‐Prusoff”, “[2]” for “[41]”

The test system of experiment [2] is HDAC activity of HeLa nuclear extract. As to the kind of experiment: Fluor de Lys-Green HDAC assay kit, HDAC inhibition. The format is biochemical. As for the experimental part: HeLa nuclear extract, rich in HDAC activity, is included with the kit. Trichostatin A solution was used as a positive control and model inhibitor. Plates were read with excitation at 380 nm and emission at 440 nm on a TECAN Spark multimode microplate reader. Histone deacetylase activity was measured according to the manufacturer's instructions.
HeLa nuclear extract, rich in HDAC activity, is included with the kit. Trichostatin A solution was used as a positive control and model inhibitor. Plates were read with excitation at 380 nm and emission at 440 nm on a TECAN Spark® multimode microplate reader. Histone deacetylase activity was measured according to manufacturer's instructions.

Experiment [3] has as its system HDAC activity in hippocampal and cortical brain homogenates. As to the kind of experiment: Ex vivo HDAC residual activity in brain homogenates after i.c.v. infusion (fluorometric). To be noted: 50 nmol/µL, 5 µL i.c.v., 30 min after infusion; vehicle = 100%.
Method: as §3
Animals were killed 30 min after drug infusion, and the brain structures were immediately dissected on ice and homogenized. HDAC activity was measured with the fluorometric method. The HDAC mean activity of the control group mice was taken as 100%, % of the activities measured for animals treated with compounds were normalized to this value. Data are expressed as means ± S.E.M. of 6–13 mice per experimental group. One‐way ANOVA and Bonferroni MCT, ****p < 0.0001 versus vehicle‐treated group. […]
The residual enzymatic activity in brain tissues was measured using Fluor de Lys‐Green HDAC fluorometric activity assay kit purchased from Enzo Life Sciences (Farmingdale, NY). […] Measurements were performed using a TECAN Spark multimode microplate reader, set to a wavelength of 280 nm. Once the absorbance was measured, the concentration of the enzyme HDAC contained in the brain homogenates was calculated according to Lambert‐Beer's law. […] Fluorescence was measured at 380 nm and detected at 440 nm. Each test included a blank as a reference for minimal fluorescence, containing only buffer and substrate, thus lacking any protein component [49, 50]. […]
Where [4] appears, read: mean from three assays, errors 5%–10%.
The mark [5] stands for this setting: supplement InChI file, given as KI.

Turning to `Nc1ccccc1NC(=O)c1ccc(NC(=O)NCCc2c[nH]cn2)cc1.O=C(O)C(F)(F)F` [Compound 12, 2‐(4‐{3‐[2‐(1H‐imidazol‐4‐yl)ethyl]ureido}benzamido)benzenaminium 2,2,2‐trifluoroacetate], the “CA activity (%) in cortical homogenates versus vehicle” value in [1] is recorded as “significantly increased”. Also, the “CA activity (%) in hippocampal homogenates versus vehicle” value in [1] is “significantly increased”. The “K A hCA II” value at hCA II is recorded as 66.8 µM. The “K A hCA IX” value on hCA IX came out at 68.8 µM. Further, the “Discrimination index (DI)” value in the experiment on Male C57Bl6 mice (0.5 nmol/µL) is listed as −0.077 ± 0.078; with Male C57Bl6 mice (5 nmol/µL), 0.288 ± 0.110; in the experiment with Male C57Bl6 mice (50 nmol/µL), 0.313 ± 0.173. Further, the “percentage of time spent exploring familiar vs novel object, retention test” value (shortened to “percentage”) with Male C57Bl6 mice (5 nmol/μL) and with Male C57Bl6 mice (50 nmol/μL) was “spent significantly more time exploring the novel object” throughout. The “K A hCA I” value on hCA I amounted to 75.4 µM. In addition, on hCA IV, the “K A hCA IV” value was 23.0 µM. Moreover, at hCA VA, the “K A hCA VA” value is reported as more than 10000 µM. Besides, at hCA VII, the “K A hCA VII” value is recorded as 32.0 µM. A half-maximal effect in experiment [2] (setting [4]) (EC50) was put at 2.8 µM.

On to `Nc1cc(F)ccc1NC(=O)c1ccc(NC(=O)NCCc2c[nH]cn2)cc1.[O-][Cl+3]([O-])([O-])O.[O-][Cl+3]([O-])([O-])O` [Compound 14, 4‐{3‐[2‐(1H‐Imidazol‐4‐yl)Ethyl]Ureido}‐N‐(2‐Amino‐4‐Fluorophenyl)Benzamide Diperchlorate], for which, in experiment [1], the “CA activity (%) in cortical homogenates versus vehicle” value was “significantly increased”. Also, the “CA activity (%) in hippocampal homogenates versus vehicle” value in experiment [1] is reported as “significantly increased”. Also, at hCA II (K A of 14 compared with 12), the “fold more potent activator of hCA II” value was 1.3 fold. At hCA II, the “K A hCA II” value was 49.5 µM. In addition, at hCA IX, the “K A hCA IX” value is more than 10000 µM. For the same molecule, the results for the “Discrimination index (DI)” value with Male C57Bl6 mice (0.5 nmol/µL), in the experiment on Male C57Bl6 mice (5 nmol/µL) and in the experiment with Male C57Bl6 mice (50 nmol/µL) were −0.026 ± 0.274, 0.317 ± 0.132 and 0.224 ± 0.223, respectively. Moreover, the “percentage” value in the experiment with Male C57Bl6 mice (5 nmol/μL) and in the experiment with Male C57Bl6 mice (50 nmol/μL) was “spent significantly more time exploring the novel object” throughout. In addition, the “fold more potent activator of hCA I” value at hCA I (K A of 14 compared with 12) was 1.4 fold. Besides, the “K A hCA I” value on hCA I was 53.8 µM. The “K A hCA IV” value on hCA IV was determined as 49.1 µM. The “K A hCA VA” value on hCA VA worked out at 37.9 µM. The “fold more potent activator of hCA VII” value on hCA VII (K A of 14 compared with 12) is listed as 1.2 fold. Also, the “K A hCA VII” value at hCA VII is listed as 26.1 µM. In [2] (setting [4]), this molecule registered a concentration giving a half-maximal response (EC50) of 5.3 µM.

Consider `Nc1ccccc1NC(=O)c1ccc(NCC(=O)NCCc2ccccc2)cc1` [Compound 19, N‐(2‐Aminophenyl)‐4‐{[2‐Oxo‐2‐(Phenethylamino)Ethyl]Amino}Benzamide], for which, in experiment [3], the “HDAC residual activity (%) in cortical homogenates versus vehicle” value is reported as “significant reduction” and the “HDAC residual activity (%) in hippocampal homogenates versus vehicle” value was “significant reduction”. In experiment [1], the “CA activity (%) in cortical homogenates versus vehicle” value is recorded as “no differences were observed” and the “CA activity (%) in hippocampal homogenates versus vehicle” value is recorded as “no differences were observed”. Moreover, the “percentage” value in the experiment with Male C57Bl6 mice (50 nmol/μL) is given as “promnesic effect”. Moreover, the “K A hCA IV” value on hCA IV is on record as more than 10000 µM. Further, on hCA IV (setting [5]), the activation constant KA is more than 10 mM. In addition, the “K A hCA VA” value on hCA VA is given as more than 10000 µM. On hCA VA (setting [5]), this molecule yielded a KA (activation constant) of more than 10 mM. The “K A hCA VII” value at hCA VII is given as more than 10000 µM. Besides, at hCA VII (setting [5]), the activation constant KA is more than 10 mM. Also, the midpoint of the response in experiment [2] (setting [4]), the EC50, lay at 14.2 µM.

Regarding `N[C@H](Cc1ccccc1)C(=O)O` [D‐Phe, reference compound], in experiment [1], the “CA activity (%) in cortical homogenates versus vehicle” value is “significantly increased” and the “CA activity (%) in hippocampal homogenates versus vehicle” value is recorded as “significantly increased”. The “K A hCA II” value on hCA II was determined as 0.035 µM. Also, in the experiment with Male C57Bl6 mice (50 nmol/μL), the “percentage” value is listed as “promnesic effect”. Further, the “K A hCA I” value on hCA I is on record as 86.0 µM. The “K A hCA IV” value on hCA IV was 49.3 µM.

`CC(/C=C/C(=O)NO)=C\[C@@H](C)C(=O)c1ccc(N(C)C)cc1` [Trichostatin A, reference compound] came in with a concentration for a half-maximal effect (EC50) in [2] (reference inhibitor) of 0.0018 µM.
